The nature of the data set: Solubility of N-benzoyl-staurosporine in water, simulated gastric and intestinal fluids. The format is physicochemical. The procedure: U.S. Pat. No. 5,093,330 specifically discloses two tablet formulations based on starch/lactose mixtures in the presence of colloidal silica, talc and magnesium stearate (Examples 52 and 53) and a capsule formulation based on talc and colloidal silica (Example 54). […] We have found it to be very lipophilic and practically insoluble in water, in simulated gastric and in intestinal fluids (solubility<0.1 mg/L). In particular this exceptional low solubility of the active substance necessitated development of a non-conventional dosage form.

As a reminder, the solubility is how much of the substance goes into solution per volume. Higher therefore signals much dissolved substance. In turn, `CO[C@@H]1[C@H](N(C)C(=O)c2ccccc2)C[C@H]2O[C@]1(C)n1c3ccccc3c3c4c(c5c6ccccc6n2c5c31)C(=O)NC4` [N-benzoyl-staurosporine] yielded a solubility below 0.1 µg/mL.

These data come from patent publication US8575147B2, “Spontaneously dispersible N-benzoyl staurosporine compositions” (Novartis AG, priority 1999, dated 2013).
